The results in this text go back to US8722687B2, “Imidazo [1,2-A]pyridine derivatives as FGFR kinase inhibitors for use in therapy” (Astex Therapeutics Ltd, priority 2009, dated 2014).

For one experiment, the target named is T1, FGFR3 (Homo sapiens, UniProt P22607).
T1 construct: purchased Upstate
Kind of experiment: FGFR3 in vitro kinase inhibitory activity assay. Type of experiment: biochemical. Conditions: read-out: FGFR3 IC50(μM) or % I. The procedure:
(§1) FGFR3, VEGFR2 and PDGFR in vitro Kinase Inhibitory Activity Assays
(§2) Enzymes (from Upstate), prepared at 2× final concentration, were incubated with test compounds, biotinylated Flt3 substrate (biotin-VASSDNEYFYVDF) (Cell Signalling Technology Inc.) and ATP in the appropriate assay buffer (Table 1). The reaction was allowed to proceed for 3 hours (FGFR3), 1 hour (VEGFR2, PDGFR-beta) at room temperature on a plate shaker at 700 rpm before being stopped with 35 mM EDTA, pH 8 (FGFR3, VEGFR2) or 55 mM EDTA, pH 8 (PDGFR-beta). 5× detection mix/50 mM HEPES pH 7.5, 0.1% BSA, 11.34 nM Eu-anti-pY (PY20) (PerkinElmer) 74 nM SA-XL665 (Cisbio) for FGFR3, 50 mM HEPES, pH 7.5, 0.1% BSA, 11.34 nM Eu-anti-pY (PY20), 187.5 nM SA-XL665 for VEGFR2 and 50 mM HEPES, pH 7.5, 0.1% BSA, 11.34 nM Eu-anti-pY (PT66) (PerkinElmer), 375 nM SA-XL665 (Cisbio) for PDGFR-beta) was then added to each well and the plate sealed and incubated at room temperature for one hour on a plate shaker at 700 rpm. The plate was then read on a Packard Fusion plate reader or a BMG Pherastar both in TRF mode.

The target in the next experiment is T2, VEGFR2 (Homo sapiens, UniProt P35968).
T2 construct: purchased Upstate
T2 sequence (P35968 20-1356): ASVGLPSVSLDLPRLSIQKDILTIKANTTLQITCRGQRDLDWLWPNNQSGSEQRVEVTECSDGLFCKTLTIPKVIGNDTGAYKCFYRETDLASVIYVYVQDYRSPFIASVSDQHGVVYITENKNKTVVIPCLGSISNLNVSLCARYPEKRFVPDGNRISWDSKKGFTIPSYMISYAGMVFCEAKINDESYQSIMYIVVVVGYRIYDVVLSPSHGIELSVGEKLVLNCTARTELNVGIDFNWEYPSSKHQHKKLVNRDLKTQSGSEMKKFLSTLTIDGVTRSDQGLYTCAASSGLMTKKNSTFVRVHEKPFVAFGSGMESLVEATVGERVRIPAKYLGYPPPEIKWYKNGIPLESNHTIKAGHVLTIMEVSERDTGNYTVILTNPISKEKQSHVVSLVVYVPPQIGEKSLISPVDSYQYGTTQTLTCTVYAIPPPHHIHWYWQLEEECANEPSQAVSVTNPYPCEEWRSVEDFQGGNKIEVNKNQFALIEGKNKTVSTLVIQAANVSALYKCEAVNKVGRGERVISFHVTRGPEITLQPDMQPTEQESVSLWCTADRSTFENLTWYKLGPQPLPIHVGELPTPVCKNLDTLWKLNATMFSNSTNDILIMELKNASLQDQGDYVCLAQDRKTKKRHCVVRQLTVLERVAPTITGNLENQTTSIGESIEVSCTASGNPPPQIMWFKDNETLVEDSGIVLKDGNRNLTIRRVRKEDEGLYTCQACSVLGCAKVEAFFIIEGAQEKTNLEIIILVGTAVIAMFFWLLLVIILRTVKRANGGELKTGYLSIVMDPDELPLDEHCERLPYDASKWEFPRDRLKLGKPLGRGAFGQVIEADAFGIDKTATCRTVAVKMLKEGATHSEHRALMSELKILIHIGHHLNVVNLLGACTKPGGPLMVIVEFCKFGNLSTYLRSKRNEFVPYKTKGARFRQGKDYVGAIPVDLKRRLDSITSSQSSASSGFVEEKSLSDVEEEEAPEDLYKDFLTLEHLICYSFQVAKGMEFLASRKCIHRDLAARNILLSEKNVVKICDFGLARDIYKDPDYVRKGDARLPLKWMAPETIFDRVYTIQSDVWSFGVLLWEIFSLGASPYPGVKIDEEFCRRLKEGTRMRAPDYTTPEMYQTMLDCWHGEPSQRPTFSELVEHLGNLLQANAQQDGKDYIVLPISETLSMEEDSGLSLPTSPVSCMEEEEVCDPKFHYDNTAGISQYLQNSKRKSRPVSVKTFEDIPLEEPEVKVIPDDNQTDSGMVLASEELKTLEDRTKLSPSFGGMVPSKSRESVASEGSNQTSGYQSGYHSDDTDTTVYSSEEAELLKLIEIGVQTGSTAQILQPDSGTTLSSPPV
Description: VEGFR2 in vitro kinase inhibitory activity assay. The note with it: read-out: VEGFR2 IC50(μM) or % I. Type of experiment: biochemical. The procedure: as §1, §2
Kinase Assay buffers were:
B: 50 mM HEPES pH 7.5, 6 mM MnCl2, 1 mM DTT, 0.01% TritonX-100, 0.1 mM Sodium orthovanadate

T1 sequence (P22607 23-806): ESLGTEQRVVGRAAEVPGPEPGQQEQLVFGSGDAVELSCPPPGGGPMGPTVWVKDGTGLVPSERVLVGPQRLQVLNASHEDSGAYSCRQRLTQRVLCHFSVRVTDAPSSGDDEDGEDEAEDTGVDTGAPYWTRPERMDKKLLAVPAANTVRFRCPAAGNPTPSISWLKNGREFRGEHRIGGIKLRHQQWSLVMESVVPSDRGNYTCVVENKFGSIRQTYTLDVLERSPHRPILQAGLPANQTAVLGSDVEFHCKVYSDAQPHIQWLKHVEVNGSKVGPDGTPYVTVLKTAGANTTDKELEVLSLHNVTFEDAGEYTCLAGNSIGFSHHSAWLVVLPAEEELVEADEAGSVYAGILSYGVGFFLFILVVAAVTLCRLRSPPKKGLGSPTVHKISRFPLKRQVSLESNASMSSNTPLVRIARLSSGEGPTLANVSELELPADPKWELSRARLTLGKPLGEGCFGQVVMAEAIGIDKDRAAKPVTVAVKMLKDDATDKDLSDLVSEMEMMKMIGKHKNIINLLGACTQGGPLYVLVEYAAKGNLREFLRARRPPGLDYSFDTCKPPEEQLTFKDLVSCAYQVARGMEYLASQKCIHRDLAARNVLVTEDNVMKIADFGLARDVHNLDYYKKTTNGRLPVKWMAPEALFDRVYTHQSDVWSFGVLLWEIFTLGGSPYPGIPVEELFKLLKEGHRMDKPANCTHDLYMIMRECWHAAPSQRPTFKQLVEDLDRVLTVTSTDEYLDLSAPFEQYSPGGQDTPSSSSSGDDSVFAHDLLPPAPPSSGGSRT

As for `Cc1nnc(-c2ccn3c(-c4cc(NC(=O)NCC(C)C)cc(OC(C)C)c4)cnc3c2)o1` [Compound F-14, 1-Isobutyl-3-{3-isopropoxy-5-[7-(5-methyl-[1,3,4]oxadiazol-2-yl)-imidazo[1,2-a]pyridin-3-yl]-phenyl}-urea], the figures for the half-inhibitory concentration (IC50) on FGFR3 and at VEGFR2 were 0.2 µM and 2.6 µM, respectively.

One may read the IC50 as the concentration that gives 50% inhibition.
